Results from ChEMBL document CHEMBL1201862, “PubChem BioAssay data set” (2004).
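Five concentrations, 48 hours, 96-well plates. At the GI50, growth is halved.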 Active and inactive are the calls of the source. No stated cut-off is given here; in the data, active = GI50 up to about 1.1 µM and inactive = higher.

What was measured:
Assay in all cases: NCI anticancer screen, dose series, 48 h
KM-20L2 = system: KM-20L2
CCRF-CEM = system: CCRF-CEM
SNB-78 = system: SNB-78
HT-29 = system: HT-29
SW-620 = system: SW-620
NCI-H522 = system: NCI-H522
DLD-1 = system: DLD-1
KM12 = system: KM12
SNB-75 = system: SNB-75
SK-MEL-2 = system: SK-MEL-2
OVCAR-3 = system: OVCAR-3
IGROV-1 = system: IGROV-1
NCI-H23 = system: NCI-H23
NCI-H226 = system: NCI-H226
M14 = system: M14
COLO 205 = system: COLO 205
NCI-H460 = system: NCI-H460
SF-539 = system: SF-539
MOLT-4 = system: MOLT-4
DMS-273 = system: DMS-273
786-0 = system: 786-0
RXF 393 = system: RXF 393
UACC-257 = system: UACC-257
RPMI-8226 = system: RPMI-8226
SNB-19 = system: SNB-19
TK-10 = system: TK-10
LXFL 529 = system: LXFL 529
HOP-92 = system: HOP-92
HOP-62 = system: HOP-62
LOX IMVI = system: LOX IMVI
A549 = system: A549
ACHN = system: ACHN
EKVX = system: EKVX
OVCAR-4 = system: OVCAR-4
XF498 = system: XF498
SK-MEL-28 = system: SK-MEL-28
HL-60 = system: HL-60
HCC 2998 = system: HCC 2998
OVCAR-5 = system: OVCAR-5
OVCAR-8 = system: OVCAR-8
M19-MEL = system: M19-MEL
SK-MEL-5 = system: SK-MEL-5
K562 = system: K562
A498 = system: A498
HCT-15 = system: HCT-15
UO-31 = system: UO-31
UACC-62 = system: UACC-62
DMS-114 = system: DMS-114
SF-295 = system: SF-295
Malme-3M = system: Malme-3M
CAKI-1 = system: CAKI-1
SF-268 = system: SF-268
SN12C = system: SN12C
SR = system: SR
SK-OV-3 = system: SK-OV-3
HCT-116 = system: HCT-116
U-251 = system: U-251

CCO/C=C1\N=C(C(Cl)c2ccccc2)OC1=O (stereo not drawn)
GI50 (KM-20L2): > 100 µM (inactive) | GI50 (CCRF-CEM): > 100 µM (inactive) | GI50 (SNB-78): > 100 µM (inactive) | GI50 (HT-29): > 100 µM (inactive) | GI50 (SW-620): > 100 µM (inactive) | GI50 (NCI-H522): > 100 µM (inactive) | GI50 (DLD-1): > 100 µM (inactive) | GI50 (KM12): > 100 µM (inactive) | GI50 (SNB-75): > 100 µM (inactive) | GI50 (SK-MEL-2): > 100 µM (inactive) | GI50 (OVCAR-3): > 100 µM (inactive) | GI50 (IGROV-1): > 100 µM (inactive) | GI50 (NCI-H23): > 100 µM (inactive) | GI50 (NCI-H226): > 100 µM (inactive) | GI50 (M14): > 100 µM (inactive) | GI50 (COLO 205): > 100 µM (inactive) | GI50 (NCI-H460): > 100 µM (inactive) | GI50 (SF-539): > 100 µM (inactive) | GI50 (MOLT-4): > 100 µM (inactive) | GI50 (DMS-273): > 100 µM (inactive) | GI50 (786-0): > 100 µM (inactive) | GI50 (RXF 393): > 100 µM (inactive) | GI50 (UACC-257): > 100 µM (inactive) | GI50 (RPMI-8226): > 100 µM (inactive) | GI50 (SNB-19): > 100 µM (inactive) | GI50 (TK-10): > 100 µM (inactive) | GI50 (LXFL 529): > 100 µM (inactive) | GI50 (HOP-92): > 100 µM (inactive) | GI50 (HOP-62): > 100 µM (inactive) | GI50 (LOX IMVI): > 100 µM (inactive) | GI50 (A549): > 100 µM (inactive) | GI50 (ACHN): > 100 µM (inactive) | GI50 (EKVX): > 100 µM (inactive) | GI50 (OVCAR-4): > 100 µM (inactive) | GI50 (XF498): > 100 µM (inactive) | GI50 (SK-MEL-28): > 100 µM (inactive) | GI50 (HL-60): > 100 µM (inactive) | GI50 (HCC 2998): > 100 µM (inactive) | GI50 (OVCAR-5): > 100 µM (inactive) | GI50 (OVCAR-8): > 100 µM (inactive) | GI50 (M19-MEL): > 100 µM (inactive) | GI50 (SK-MEL-5): > 100 µM (inactive) | GI50 (K562): > 100 µM (inactive) | GI50 (A498): > 100 µM (inactive) | GI50 (HCT-15): > 100 µM | GI50 (UO-31): > 100 µM (inactive) | GI50 (UACC-62): > 100 µM (inactive) | GI50 (DMS-114): 61.5 µM (inactive) | GI50 (SF-295): > 100 µM (inactive) | GI50 (Malme-3M): > 100 µM (inactive) | GI50 (CAKI-1): > 100 µM (inactive) | GI50 (SF-268): > 100 µM (inactive) | GI50 (SN12C): > 100 µM (inactive)

COc1ccc(C(=O)C2CCC(C(=O)O)C2)cc1 (stereo not drawn)
GI50 (KM-20L2): > 100 µM (inactive) | GI50 (CCRF-CEM): > 100 µM (inactive) | GI50 (SNB-78): > 100 µM (inactive) | GI50 (HT-29): > 100 µM (inactive) | GI50 (SW-620): > 100 µM (inactive) | GI50 (NCI-H522): > 100 µM (inactive) | GI50 (DLD-1): > 100 µM (inactive) | GI50 (KM12): > 100 µM (inactive) | GI50 (SNB-75): > 100 µM (inactive) | GI50 (SK-MEL-2): > 100 µM (inactive) | GI50 (OVCAR-3): > 100 µM (inactive) | GI50 (IGROV-1): > 100 µM (inactive) | GI50 (NCI-H23): > 100 µM (inactive) | GI50 (NCI-H226): > 100 µM (inactive) | GI50 (M14): > 100 µM (inactive) | GI50 (SR): > 100 µM (inactive) | GI50 (COLO 205): > 100 µM (inactive) | GI50 (NCI-H460): > 100 µM (inactive) | GI50 (SF-539): > 100 µM (inactive) | GI50 (MOLT-4): > 100 µM (inactive) | GI50 (DMS-273): > 100 µM (inactive) | GI50 (786-0): > 100 µM (inactive) | GI50 (RXF 393): > 100 µM (inactive) | GI50 (SK-OV-3): > 100 µM (inactive) | GI50 (UACC-257): > 100 µM (inactive) | GI50 (RPMI-8226): > 100 µM (inactive) | GI50 (SNB-19): > 100 µM (inactive) | GI50 (TK-10): > 100 µM (inactive) | GI50 (LXFL 529): > 100 µM (inactive) | GI50 (HOP-92): > 100 µM (inactive) | GI50 (HOP-62): > 100 µM (inactive) | GI50 (LOX IMVI): > 100 µM (inactive) | GI50 (A549): > 100 µM (inactive) | GI50 (ACHN): > 100 µM (inactive) | GI50 (HCT-116): > 100 µM (inactive) | GI50 (EKVX): > 100 µM (inactive) | GI50 (OVCAR-4): > 100 µM (inactive) | GI50 (SK-MEL-28): > 100 µM (inactive) | GI50 (HL-60): > 100 µM (inactive) | GI50 (HCC 2998): > 100 µM (inactive) | GI50 (U-251): > 100 µM (inactive) | GI50 (OVCAR-5): > 100 µM (inactive) | GI50 (OVCAR-8): > 100 µM (inactive) | GI50 (M19-MEL): > 100 µM (inactive) | GI50 (SK-MEL-5): > 100 µM (inactive) | GI50 (K562): > 100 µM (inactive) | GI50 (A498): > 100 µM (inactive) | GI50 (HCT-15): > 100 µM | GI50 (UO-31): > 100 µM (inactive) | GI50 (UACC-62): > 100 µM (inactive) | GI50 (DMS-114): > 100 µM (inactive) | GI50 (SF-295): > 100 µM (inactive) | GI50 (Malme-3M): > 100 µM (inactive) | GI50 (CAKI-1): > 100 µM (inactive) | GI50 (SN12C): > 100 µM (inactive)
